Data published in US10011573B2, “Human androgen receptor DNA-binding domain (DBD) compounds as therapeutics and methods for their use” (The University of British Columbia, priority 2014, dated 2018).
Entries after “also recorded” stand apart in the source; their conditions may differ. Read-outs that look alike come from different tables or passages of the source.

Experiments:
[1] = target: T1, YFP-V7 (Homo sapiens, UniProt P10275); test: Luciferase assay with YFP-V7 in PC3 cells; assay type: cell-based
T1 construct: expressed in transfected cells; host or cells: PC3
Excerpt: the underlined primer sections anneal to the specified template, although their 5′-extensions (italicized) are complementary to the corresponding primer sequence of the other PCR. Plasmid assembly is achieved by mixing the PCR products from each reaction (Klock, H. E. et al. (2008) Combining the polymerase incomplete primer extension method for cloning and mutagenesis with microscreening to accelerate structural genomics efforts. Proteins 71, 982-994), followed by transformation into chemically competent bacteria. A similar strategy was used to clone the AR-DBD+hinge into the Pan4 vector (avidity) expressing the N-terminal biotinylation sequence ([…] ) and C-terminal His tag. YFP-AR plasmid was a gift from Dr. Jan Trapman (van Royen, M. E. et al. (2012) Stepwise androgen receptor dimerization. J. Cell Sci. 125, 1970-1979) and is based on pEYFP-C1 (Clontech™). YFP-V7 was constructed by polymerase incomplete primer extension method using the following primers and templates: AR-V7 insert from pcDNA3. AR-V7 template

[2] = system: endogenous wild type AR; test: ARR3tk-luciferase assay in R1-AD1 cells; assay type: cell-based, human
[3] = target: T2, AR Y594D mutant (Homo sapiens, UniProt P10275, Y594D); test: ARR3tk-luciferase reporter assay in PC3 cells, AR Y594D; assay type: cell-based
T2 construct: expressed in transfected cells; host or cells: PC3
Procedure: 8. Mutation Studies: The residues in the predicted binding site were mutated using the Quickchange™ Site-Directed Mutagenesis Kit as per the instructions.
(§1) 9. Transient Transfection: The PC3/MCF7 cells were seeded into a 96-well plate (2,000 cells/well). After 24 hrs, the wild-type AR (50 ng/well)/AR mutants and AR3TK-luciferase plasmids (1:3) were co-transfected into PC3 cells or ERE-luciferase (50 ng/well) was transfected into MCF7 cells using transfection reagent TT20. 24 hrs after the transfection, the cells were treated with the compounds at various concentrations. And 24 hrs later, the cells were lysed and the reading was taken using a luminometer.

[4] = system: LNCaP cells; test: Cell viability (MTS) assay, LNCaP; assay type: cell-based, human; details: 0.1 nM R1881
Procedure: 1. Cell Culture: LNCaP and PC3 human prostate cancer cells were obtained from American Type Culture Collection (ATCC, Manassas, Va.) and grown in RPMI 1640 medium supplemented with 5% fetal bovine serum (FBS) (Invitrogen). […]. All cells were maintained at 37° C. in 5% CO2.
7. Cell viability assay: The PC3, LNCaP, and MDV3100-resistant cells were plated at 3,000 cells per well in RPMI 1640 containing 5% charcoal stripped serum (CSS) in a 96-well plate, treated with 0.1 nM R1881 and compounds (0-25 μM) for 96 hrs.

[5] = target: T3, full-length human AR (Homo sapiens, UniProt P10275); test: ARR3tk-luciferase reporter assay in PC3 cells, wild-type AR; assay type: cell-based; details: transient AR, R1881
T3 construct: expressed in transfected cells; host or cells: PC3 (AR-negative human prostate cancer cells)
T3 sequence (P10275 1-920): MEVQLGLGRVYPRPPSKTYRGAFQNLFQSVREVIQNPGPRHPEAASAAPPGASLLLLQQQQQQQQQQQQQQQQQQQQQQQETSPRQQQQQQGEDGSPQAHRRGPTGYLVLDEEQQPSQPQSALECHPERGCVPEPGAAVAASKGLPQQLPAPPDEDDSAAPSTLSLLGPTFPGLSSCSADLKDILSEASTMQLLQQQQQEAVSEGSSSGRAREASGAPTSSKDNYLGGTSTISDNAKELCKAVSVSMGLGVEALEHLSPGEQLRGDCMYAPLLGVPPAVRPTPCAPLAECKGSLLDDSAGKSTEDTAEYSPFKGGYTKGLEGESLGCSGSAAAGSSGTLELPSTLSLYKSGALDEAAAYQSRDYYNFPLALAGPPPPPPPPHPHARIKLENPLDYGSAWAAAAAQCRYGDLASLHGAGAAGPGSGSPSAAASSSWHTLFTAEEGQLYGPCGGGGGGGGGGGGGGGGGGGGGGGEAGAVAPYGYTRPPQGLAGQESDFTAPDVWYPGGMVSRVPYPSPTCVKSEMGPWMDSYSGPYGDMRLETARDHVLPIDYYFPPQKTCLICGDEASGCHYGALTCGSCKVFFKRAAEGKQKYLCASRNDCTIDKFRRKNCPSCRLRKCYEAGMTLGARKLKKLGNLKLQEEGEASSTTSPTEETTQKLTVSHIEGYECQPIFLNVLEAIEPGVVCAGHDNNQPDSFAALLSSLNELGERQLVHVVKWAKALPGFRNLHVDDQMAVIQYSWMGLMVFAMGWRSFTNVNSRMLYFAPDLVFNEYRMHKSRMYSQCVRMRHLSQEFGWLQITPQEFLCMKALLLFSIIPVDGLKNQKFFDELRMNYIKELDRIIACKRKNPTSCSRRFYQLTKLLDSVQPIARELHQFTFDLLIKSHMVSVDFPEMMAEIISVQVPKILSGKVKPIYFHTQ
Procedure: as §1

[6] = target: T4, AR-V7 (Homo sapiens, UniProt P10275); test: ARR3tk-luciferase reporter assay in PC3 cells, splice variant AR-V7; assay type: cell-based
T4 construct: expressed in transfected cells; host or cells: PC3
Excerpt: Full-length human AR (hARWT) or splice variant (AR-V7) was encoded on a pcDNA3.1 expression plasmid.

[7] = system: FKBP5; test: Western blot FKBP5 protein in R1-D567 cells; assay type: cell-based, human
Procedure: Cell lysates (40 μl) from luciferase assays (96-well plate) were separated on a 10% SDS-polyacrylamide mini gel. Protein was transferred to methanol-charged PVDF membranes and probed with anti-AR441 (mouse, Sigma™) monoclonal primary antibody. Blots were also probed with polyclonal anti-actin (rabbit, Sigma™) to show equal loading and polyclonal anti-PARP/anti-cleaved PARP (rabbit, Sigma™) to test for induction of apoptosis. Lysates from CWR-R1 cells were additionally probed with polyclonal anti-FKBP5 (rabbit, Sigma™) following 2 days of incubation with compounds.

[8] = target: T5, YFP-AR (Homo sapiens, UniProt P10275); test: Confocal microscopy of YFP-AR nuclear localization in PC3 cells; assay type: cell-based
T5 construct: plasmids encoding YFP-tagged full-length AR (yellow fluorescent protein, YFP-AR); expressed in transfected cells; host or cells: PC3
T5 sequence (P10275 1-920): T3 sequence (P10275 1-920)
Procedure: Transfection of YFP-AR or YFP-V7 plasmids (100 ng per well) was performed using TT20 (3 μl) for 48 h. […] After aspiration of the media, cells were washed once with PBS and fixed in 4% paraformaldehyde overnight at 4° C., followed by mounting on charged cover slides using DAPI mount (Vector Laboratories).

[9] = system: PSA; test: PSA measurements, LNCaP cells, 1 nM R1881, 2 days; assay type: cell-based, human
Procedure: Following the incubation period, 150 μl of the media was taken from each well, and PSA levels were quantified using a Cobas e411 analyzer (Roche Applied Science™) according to the manufacturer's instructions. The same instrument was used to analyze serum PSA from mice during the in vivo analysis.

T4 sequence (P10275 1-644 isoform P10275-3): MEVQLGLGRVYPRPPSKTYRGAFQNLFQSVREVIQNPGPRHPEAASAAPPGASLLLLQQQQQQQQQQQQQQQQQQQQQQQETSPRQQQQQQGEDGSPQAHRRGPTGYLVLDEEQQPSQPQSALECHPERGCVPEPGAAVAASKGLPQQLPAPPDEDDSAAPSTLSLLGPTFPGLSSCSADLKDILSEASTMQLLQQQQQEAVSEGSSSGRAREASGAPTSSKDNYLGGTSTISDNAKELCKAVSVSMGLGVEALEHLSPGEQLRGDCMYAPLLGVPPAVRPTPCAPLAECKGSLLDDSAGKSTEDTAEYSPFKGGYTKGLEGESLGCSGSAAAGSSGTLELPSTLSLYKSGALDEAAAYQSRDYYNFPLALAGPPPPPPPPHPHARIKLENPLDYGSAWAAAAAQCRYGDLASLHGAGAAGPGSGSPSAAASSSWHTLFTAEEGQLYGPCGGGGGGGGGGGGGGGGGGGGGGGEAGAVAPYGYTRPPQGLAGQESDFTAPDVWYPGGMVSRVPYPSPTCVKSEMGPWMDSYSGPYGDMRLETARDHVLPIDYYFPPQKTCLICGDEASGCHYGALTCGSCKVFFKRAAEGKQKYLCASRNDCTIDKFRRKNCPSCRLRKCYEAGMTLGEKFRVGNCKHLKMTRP
T1 sequence (P10275 1-644 isoform P10275-3): as above
T2 sequence (P10275 whole entry Y594D): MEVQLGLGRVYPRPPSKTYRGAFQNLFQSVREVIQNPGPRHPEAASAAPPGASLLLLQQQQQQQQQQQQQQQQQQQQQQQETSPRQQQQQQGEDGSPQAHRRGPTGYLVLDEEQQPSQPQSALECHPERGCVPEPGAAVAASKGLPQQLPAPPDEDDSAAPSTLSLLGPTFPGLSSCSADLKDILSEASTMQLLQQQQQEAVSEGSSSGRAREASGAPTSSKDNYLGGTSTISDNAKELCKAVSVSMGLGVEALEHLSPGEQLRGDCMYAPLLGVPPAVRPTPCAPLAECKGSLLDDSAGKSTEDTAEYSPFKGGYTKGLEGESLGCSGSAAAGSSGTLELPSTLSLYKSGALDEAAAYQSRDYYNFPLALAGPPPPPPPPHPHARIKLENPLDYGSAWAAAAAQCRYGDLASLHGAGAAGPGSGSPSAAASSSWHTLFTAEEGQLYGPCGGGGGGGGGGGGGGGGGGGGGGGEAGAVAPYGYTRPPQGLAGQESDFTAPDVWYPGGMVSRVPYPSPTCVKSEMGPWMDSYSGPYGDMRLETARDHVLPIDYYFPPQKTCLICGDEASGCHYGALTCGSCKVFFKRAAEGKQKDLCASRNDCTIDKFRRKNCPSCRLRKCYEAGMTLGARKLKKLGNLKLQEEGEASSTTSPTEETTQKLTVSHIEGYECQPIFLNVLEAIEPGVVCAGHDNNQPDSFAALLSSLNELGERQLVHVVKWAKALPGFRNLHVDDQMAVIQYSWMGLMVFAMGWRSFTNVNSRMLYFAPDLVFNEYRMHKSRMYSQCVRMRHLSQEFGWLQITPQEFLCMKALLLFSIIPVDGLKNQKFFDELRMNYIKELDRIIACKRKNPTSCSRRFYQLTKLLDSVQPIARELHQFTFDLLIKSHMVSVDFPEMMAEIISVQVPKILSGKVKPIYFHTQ

Structure (SMILES) | inhibition of YFP-V7 driven luciferase expression [1] | inhibition of wild type AR transcriptional activity [2] | inhibition of Y594D AR luciferase expression [3] | inhibition of cell growth, LNCaP [4] | IC50 [5] [nM] | inhibition of AR-V7 transcriptional activity [6] | FKBP5 protein expression, R1-D567 cells [7] | R1881-stimulated nuclear localization of YFP-AR [8] | nuclear localization of YFP-AR in the absence of R1881 [8] | IC50 secreted PSA [9] | concentration at which Y594D AR is inhibited ([3]; PC3 cells) [µM] | inhibition of AR-V7 transcriptional activity ([6]; PC3 cells, no R1881) | R1881-stimulated nuclear localization of YFP-AR ([8]; 10 nM R1881, 25 μM compound, 6 h) | nuclear localization of YFP-AR in the absence of R1881 ([8]; 25 μM compound)
c1ccc(-c2csc(N3CCOCC3)n2)cc1 [Compound 14228, 4-(4-phenylthiazol-2-yl)morpholine] | could be inhibited | could inhibit | not affected | strongly inhibits | 2360 | reduced with increasing concentrations; also recorded: inhibit the transcription of AR-V7 in a concentration-dependent manner | reduced | did not prevent R1881-stimulated nuclear localization | could not stimulate any nuclear localization | sub-micromolar | – | – | – | –
Brc1ncn(-c2csc(N3CCOCC3)n2)c1Br [Compound 14449] | could be inhibited | could inhibit | – | concentration-dependent inhibition of the cell growth | 340 | – | reduced | – | – | sub-micromolar | ≥ 25 | reduced with increasing concentrations; also recorded: inhibit the transcription of AR-V7 in a concentration-dependent manner | did not prevent R1881-stimulated nuclear localization | could not stimulate any nuclear localization
